Reference: PubChem BioAssay AID330 (DTP/NCI, 2004)
“And” between values parts separate entries of the source, which are not always exact repeats. Identical values can stand only once. Toxic doses and inconclusive results are not listed.

System: P388 leukemia ip, CD2F1 mice, survival T/C
Assay: NCI In Vivo Anticancer Drug Screen. Data for tumor model P388 Leukemia (intraperitoneal) in CD2F1 (CDF1) mice
Conditions: endpoint: median survival time, higher = longer survival
Procedure, shortened: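 Mice carrying the transplanted tumor received test compound or vehicle. Survival was recorded in each group, and the value is the treated-group measurement divided by that of the vehicle-treated control group.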

[1] = dose: 60.0 mg/kg/injection, schedule: Q01DX005 (ip), vehicle: saline with Tween-80
[2] = dose: 240.0 mg/kg/injection, schedule: Q01DX005 (ip), vehicle: saline with Tween-80
[3] = dose: 50.0 mg/kg/injection, schedule: Q01DX009 (ip), vehicle: saline with Tween-80
[4] = dose: 25.0 mg/kg/injection, schedule: Q01DX009 (ip), vehicle: saline with Tween-80
[5] = dose: 100.0 mg/kg/injection, schedule: Q01DX009 (ip), vehicle: saline with Tween-80
[6] = dose: 200.0 mg/kg/injection, schedule: Q01DX009 (ip), vehicle: saline with Tween-80

## CCCCCCN(CCCCCC)CC(O)c1cc(-c2ccccc2)nc2ccccc12 (centres undefined)
dose: 50.0 mg/kg/injection, schedule: Q01DX005 (ip), vehicle: saline with Tween-80
  T/C: 100 % of control
dose: 100.0 mg/kg/injection, schedule: Q01DX005 (ip), vehicle: saline with Tween-80
  T/C: 103 % of control
dose: 200.0 mg/kg/injection, schedule: Q01DX005 (ip), vehicle: saline with Tween-80
  T/C: 105 % of control

## NC(=O)C1CCCN(C2OC(COP(=O)(O)OP(=O)(O)OCC3OC(n4nnc5c(=O)[nH]c(N)nc54)C(O)C3O)C(O)C2O)C1 (centres undefined)
dose: 50.0 mg/kg/injection, schedule: Q01DX005 (ip), vehicle: saline
  T/C: 115 % of control
dose: 100.0 mg/kg/injection, schedule: Q01DX005 (ip), vehicle: saline
  T/C: 98 % of control
dose: 200.0 mg/kg/injection, schedule: Q01DX005 (ip), vehicle: saline
  T/C: 87 % of control

## N#CC(C(=O)C(=O)NC1C2CC3CC(C2)CC1C3)c1c(Cl)cccc1Cl (centres undefined)
[1]
  T/C: 104 % of control
dose: 120.0 mg/kg/injection, schedule: Q01DX005 (ip), vehicle: saline with Tween-80
  T/C: 106 % of control
[2]
  T/C: 100 % of control

## Cn1c(=O)c2c(nc(CCCCc3nc4c(c(=O)n(C)c(=O)n4C)n3C)n2C)n(C)c1=O
dose: 1.56 mg/kg/injection, schedule: Q01DX009 (ip), vehicle: saline with Tween-80
  T/C: 87 % of control
dose: 3.13 mg/kg/injection, schedule: Q01DX009 (ip), vehicle: saline with Tween-80
  T/C: 89 % of control
dose: 6.25 mg/kg/injection, schedule: Q01DX009 (ip), vehicle: saline with Tween-80
  T/C: 88 % of control
[3]
  T/C: 86 % of control

## CCOc1ccc(/C=N/Nc2ccc([N+](=O)[O-])cc2)cc1OC
dose: 100.0 mg/kg/injection, schedule: Q04DX003 (ip), vehicle: saline with Tween-80
  T/C: 95 % of control
dose: 200.0 mg/kg/injection, schedule: Q04DX003 (ip), vehicle: saline with Tween-80
  T/C: 90 % of control
dose: 400.0 mg/kg/injection, schedule: Q04DX003 (ip), vehicle: saline with Tween-80
  T/C: 90 % of control

## CN(Cc1cnc2nc(N)nc(N)c2n1)c1ccc(C(=O)NC(CCC(=O)OCc2c(Cl)cccc2Cl)C(=O)OCc2c(Cl)cccc2Cl)cc1 (centres undefined)
dose: 3.75 mg/kg/injection, schedule: Q01DX005 (ip), vehicle: saline with Tween-80
  T/C: 168 % of control
dose: 7.5 mg/kg/injection, schedule: Q01DX005 (ip), vehicle: saline with Tween-80
  T/C: 207 % of control and 237 % of control
dose: 15.0 mg/kg/injection, schedule: Q01DX005 (ip), vehicle: saline with Tween-80
  T/C: 105 % of control and 92 % of control
dose: 30.0 mg/kg/injection, schedule: Q01DX005 (ip), vehicle: saline with Tween-80
  T/C: 87 % of control

## O=C1NC(=O)NC(C(=O)O)N1
dose: 12.5 mg/kg/injection, schedule: Q01DX009 (ip), vehicle: Klucel (hydroxypropylcellulose) (HPC)
  T/C: 105 % of control
dose: 25.0 mg/kg/injection, schedule: Q01DX009 (ip), vehicle: Klucel (hydroxypropylcellulose) (HPC)
  T/C: 105 % of control
[4]
  T/C: 94 % of control
dose: 50.0 mg/kg/injection, schedule: Q01DX009 (ip), vehicle: DMSO
  T/C: 103 % of control
dose: 50.0 mg/kg/injection, schedule: Q01DX009 (ip), vehicle: Klucel (hydroxypropylcellulose) (HPC)
  T/C: 104 % of control
[3]
  T/C: 100 % of control
dose: 100.0 mg/kg/injection, schedule: Q01DX009 (ip), vehicle: DMSO
  T/C: 100 % of control
dose: 100.0 mg/kg/injection, schedule: Q01DX009 (ip), vehicle: Klucel (hydroxypropylcellulose) (HPC)
  T/C: 104 % of control
[5]
  T/C: 100 % of control
dose: 200.0 mg/kg/injection, schedule: Q01DX009 (ip), vehicle: DMSO
  T/C: 97 % of control
dose: 200.0 mg/kg/injection, schedule: Q01DX009 (ip), vehicle: Klucel (hydroxypropylcellulose) (HPC)
  T/C: 115 % of control
[6]
  T/C: 95 % of control

## Cc1c2cc[n+](C)cc2c(C)c2c1[nH]c1ccccc12
dose: 1.25 mg/kg/injection, schedule: Q04DX002 (ip), vehicle: water
  T/C: 103 % of control and 117 % of control
dose: 2.5 mg/kg/injection, schedule: Q04DX002 (ip), vehicle: water
  T/C: 114 % of control and 121 % of control
dose: 12.5 mg/kg/injection, schedule: Q04DX002 (ip), vehicle: distilled water + Tween-80
  T/C: 122 % of control

## Cc1ccccc1C1N(Cc2ccccc2)C(=S)C1(C(C)C)C(C)(C)C (centres undefined)
dose: 100.0 mg/kg/injection, schedule: Q01DX001 (ip), vehicle: saline with Tween-80
  T/C: 102 % of control
dose: 200.0 mg/kg/injection, schedule: Q01DX001 (ip), vehicle: saline with Tween-80
  T/C: 92 % of control
dose: 400.0 mg/kg/injection, schedule: Q01DX001 (ip), vehicle: saline with Tween-80
  T/C: 94 % of control

## C/C(=N\N=C(N)N)c1ccccc1
dose: 6.25 mg/kg/injection, schedule: Q01DX009 (ip), vehicle: saline
  T/C: 110 % of control
dose: 12.5 mg/kg/injection, schedule: Q01DX009 (ip), vehicle: saline
  T/C: 101 % of control

## Cn1c(=S)[nH]c2scc(-c3ccccc3)c2c1=O
[1]
  T/C: 87 % of control
[2]
  T/C: 96 % of control

## CCc1cccc(CC)c1N1C(=O)c2cccnc2C1=O
dose: 50.0 mg/kg/injection, schedule: Q01DX009 (ip), vehicle: saline
  T/C: 100 % of control
dose: 100.0 mg/kg/injection, schedule: Q01DX009 (ip), vehicle: saline
  T/C: 97 % of control
dose: 200.0 mg/kg/injection, schedule: Q01DX009 (ip), vehicle: saline
  T/C: 93 % of control

## C=CCCN(c1ccc(C(=O)OCC)cc1)S(=O)(=O)c1ccc(C)cc1
[4]
  T/C: 100 % of control
[3]
  T/C: 110 % of control
[5]
  T/C: 100 % of control
[6]
  T/C: 108 % of control
